The subject of data set [1] is MMP-2. As to the kind of experiment: MMPs secretion by endothelial cells, gelatin zymography. In kind it is cell-based. The settings on record: BAEC and EA.hy926, even at dose as low as 10 µg/ml, 24 h, conditioned media. The procedure:
(§1) ST104P decreases the MMPs secretion by endothelial cells. The conditioned media of BAECs or EA.hy926 cells (in 24-well plate at 1x10^4 cells/well) treated with PBS or ST104P (10-500 µg/ml) for […] were collected to analyze the expression of MMPs by gelatin-PAGE zymography.
(§2) Secretion of MMPs by endothelial cells was assessed by 0.1% gelatin-SDS-PAGE zymography. Briefly, endothelial cells near 80% confluence were washed twice with serum-free media and treated with various doses of vasostatin for 24-48 h: Conditioned media were collected and assayed for protein concentration by Bradford assay. Aliquots of conditioned media were subjected to separation with 10% SDS-PAGE containing 0.1% type A gelatin (Sigma; St. Louis, MO). After electrophoresis, gel was washed twice with 2.5% Triton X-100, incubated in buffer containing 40 mM Tris-HCl, pH 8.0, 10 mM CaCl2, 0.01% sodium azide at 37 °C for 12-24 h, stained with 0.25% Coomassie Blue R-250 in 50% methanol and 10% acetic acid for 1 h, and destained with 10 % acetic acid, 20% methanol. The gelatinolytic regions by MMPs were visualized as white bands in blue background.

In data set [2] the test system is MMP-9. Described as above. Format: cell-based. The settings on record: BAEC and EA.hy926, even at dose as low as 10 µg/ml, 24 h, conditioned media. How it is done:
as §1, §2

The test system of data set [3] is CAM. As to the kind of experiment: Chorioallantoic membrane (CAM) assay.
Method: The CAMs in 8-day old chicken embryos were incubated with saline or ST104P (50 or 200 µg in saline) for 48 h. The angiogenesis profiles on CAMs were recorded under dissection microscope.
The CAM assay was carried out as described previously (Sheu et al., Anticancer Res 18, 4435-4441,1998). Briefly, fertilized White Leghorn chicken eggs were purchased from Taiwan Provincial Research Institute for Animal Health (Hsin-Chu, Taiwan) and incubated at 37 °C with 60% humidity. On day 3, a square window was opened in the shell, and 2 to 3 ml of albumen was removed to allow detachment of the developing CAM. The window was sealed with a glass, and the eggs were returned to the incubator. On day 8, 50-100 µg ST104P in saline was injected onto the top of the CAM. The CAMs were examined daily until day 10-12, when the angiogenic response peaks, and photographed in ovo with a stereomicroscope equipped with Zeiss MC63 camera system (Zeiss, Oberkochen, Germany). The experiments were carried out using 10 eggs per group.
Data set [4] relates to Lewis lung carcinoma. Format: in vivo, C57BL/6J mice. How it is done: Fig. 6. Injection of ST104P suppressed tumor growth of Lewis lung carcinoma in mice. The subcutaneous dorsa of mice were implanted with Lewis lung carcinomas. The tumor sizes in mice during treatment with ST104P or control were recorded. […] Each point represents mean ± SEM for ten mice.
Fig. 7. Injection of ST104P prolonged the survival of tumor-bearing mice. The subcutaneous dorsa of mice were implanted with Lewis lung carcinomas. The tumor sizes in mice during treatment with ST104P or control were recorded. […] Each point represents mean ± SEM for ten mice. The overall survival rates of ten mice in PBS- or ST104P-treated group were recorded.
Animal study was carried out in the animal facility of Kaohsiung Veterans General Hospital in accordance with institutional guidelines. Male C57BL/6J mice (6- to 8-week-old; Animal Center of National Cheng Kung University, Taiwan) were used. Mice were acclimated and caged in groups of four or less. All mice were fed with a diet of animal chow and water ad libitum. Animals were anesthetized in a methoxyflurane chamber prior to all procedures and were observed until fully recovered. Animals were sacrificed by a lethal dose of methoxyflurane.
C57BL/6J mice were implanted with Lewis lung carcinomas cells using the techniques described previously (O'Reilly et al., Cell 88, 277-285,1997). Briefly, the LL2 Lewis lung carcinoma cells were resuspended in PBS at the concentration of 2.5 x 10^6 cells per ml and injected into C57B16/J mice (n = 20) with 0.1 ml of the cell suspension to induce tumor. Tumors were measured with a dial-caliper and volumes were determined using the formula width^2 × length × 0.52. After tumor volumes reached 100-200 mm^3, mice were randomized into two groups receiving periodic injection of ST104P (n=10) or saline (n = 10) by subcutaneous injection at a site near tumor. The measurement of tumor size was terminated when mice began to die. In addition, the survival rate of mice in different groups was recorded and analyzed by Kaplan-Mier Survival analysis.

In data set [5] the test system is BAEC. As to the kind of experiment: Cytotoxicity: cell proliferation assay (crystal violet stain) and morphology. In kind it is cell-based, Bovine. The procedure:
(§3) Fig.1. The cytotoxicity of ST104P in different types of cells. […] After treatment of ST104P at 10-500 µg/ml in DMEM medium containing 10% FCS for 24 h, the morphologies of BAEC and 3T3 cells were monitored under phase contrast microscopy. The pictures were taken at 400× magnification. (B). The dose-dependent effect of ST104P on the proliferation of different cells. After treatment with ST104P at 10-500 µg/ml or PBS for 48 h, the viability of various cells was determined by crystal violet method in an ELISA reader. Each data represent mean ± SD of quadruplicate experiments. Asterisks indicated statistic significance versus control (P<0.001).
Human umbilical vein endothelial cells (HUVEC; passage 3 to 6) were isolated from umbilical veins and cultured in RPMI 1640 medium (Life Technologies, Gaithersburg, MD) containing 15% fetal calf serum, 20 U/ml porcine heparin (Sigma Chemical Co), and 100 µg/ml endothelial cell growth supplement (Calbiochem; La Jolla, CA). Bovine aortic endothelial (BAEC) cells, 3T3 cells, and LL2 Lewis lung carcinoma cells were cultured with DMEM (Dulbecco's Modified Eagle Medium; Gibco BRL, Rockville, MD) containing 10% fetal calf serum (PAA, Austria), 2 mM glutamine, 100 U/ml penicillin and 100 µg/ml streptomycin (Gibco BRL, Rockville, MD) in 5% CO2 at 37 °C. Human vascular endothelial EA.hy926 cells were cultured in DMEM (Dulbecco's Modified Eagle Medium; Gibco BRL, Rockville, MD) containing 10% fetal calf serum (PAA, Austria), 100 µM sodium hypoxanthine, 0.4 µM aminopterin, 16 µM thymidine (HAT; Gibco BRL, Rockville, MD), 2 mM glutamine, 100 U/ml penicillin and 100 µg/ml streptomycin (Gibco BRL, Rockville, MD) in 5% CO2 at 37 °C.
The effect of ST104P on the viability of various cells was determined using crystal violet stain assay. Briefly, cells cultured in 96-well plate (2-4 x10^3 cells/well) were treated with various doses of ST104P for 48 h. […] The dye in viable cells was measured by reading the optical density at 590 nm using a scanning multi-well spectrophotometer (ELISA reader; Dynatech Laboratories, Chantilly, VA).

For data set [6] the following is noted: in vivo.
Data set [7] deals with EA.hy926. Nature of the data set: Cell migration assay (Boyden chamber, bFGF as chemoattractant). Format: cell-based, Human. The settings on record: EA.hy926, incubation 6 h, bFGF 100 ng/ml.
The subject of data set [8] is BAEC. Nature of the data set: Tube formation assay in Matrigel. In kind it is cell-based, Bovine. The note with it: 20-100 µg/ml. How it is done:
(§4) Fig. 3. ST104P abolished the tube formation of endothelial cells. Application of ST104P perturbed tubular network of BAEC or EA.hy9236 cells in Matrigel. Endothelial cells were applied to Matrigel-coated plate in the absence or presence of ST104P. After 8 h, the tubular structures of BAEC cells were monitored and recorded under light microscopy. The pictures were taken at 400× magnification.
(§5) Matrigel (Becton Dickinson; Bedford, MA) was diluted with cold serum-free medium to 10 mg/ml. Two hundred µl of the diluted solution were added to each well in 24-well plate and allowed to form a gel at 37 °C for 30 min. BAEC or HUVEC (1.5 x 10^5 cells per ml) were initially incubated for 15 min with various doses of ST104P in complete medium. Two hundred µl of the cell suspension (3 x 10^4 cells) were then subsequently added to each well and incubated for 6-8 h at 37 °C in 5% CO2. Under these conditions endothelial cells form delicate networks of tubes that are detectable within 2-3 h and are fully developed after 8-12 h. After incubation with ST104P, the wells were washed and the Matrigel and its endothelial tubes were fixed with 3% paraformaldehyde.

Data set [9] relates to BAEC. Nature of the data set: Cell migration assay (Boyden chamber, bFGF as chemoattractant). In kind it is cell-based, Bovine. The note with it: incubation 6 h, bFGF 100 ng/ml. The procedure: Fig. 2. ST104P inhibited the migration of endothelial cells. The effect of ST104p on migration of endothelial cells. BAEC were plated in 6-well plate (1 x 10^6 cells per well) and treated with vasostatin of indicated dose for 12 h. After trypsinization, endothelial cells were applied to top wells in Boyden chamber to initiated migration toward chemoattractant bFGF (100 ng/ml) in the bottom wells. The migrated cells on filter were stained and counted. Each point represents mean ± SEM of triplicate experiments.
Endothelial cells were treated with ST104P of indicated doses for 6-12 h, harvested by trysinization, collected by centrifugation, resuspended in DMEM media containing 0.1% BSA, and seeded in triplicate for each dose and controls in the upper compartment of the chamber (1.2 x 10^5 cells in 400 µl). The lower compartment was filled with 200 µl of the DMEM media containing 100 ng/ml bFGF (R&D, Minneapolis, MN) as the chemoattractant, or with DMEM media containing 0.1% BSA as the negative control (to evaluate random migration). […] After incubation for 2-4 h in a humidified 5% CO2 atmosphere at 37 °C, cells on the upper side of the filter were removed, and those that had migrated to the lower side were fixed in absolute ethanol, stained with 10% Giemsa solution (Merck, Germany), and counted as a mean ± SD per filter under five different high power fields.

Data set [10] relates to EA.hy926. Nature of the data set: Cytotoxicity: cell proliferation assay (crystal violet stain). Format: cell-based, Human. How it is done: as §3
(§6) Human umbilical vein endothelial cells (HUVEC; passage 3 to 6) were isolated from umbilical veins and cultured in RPMI 1640 medium (Life Technologies, Gaithersburg, MD) containing 15% fetal calf serum, 20 U/ml porcine heparin (Sigma Chemical Co), and 100 µg/ml endothelial cell growth supplement (Calbiochem; La Jolla, CA). […]
(§7) The effect of ST104P on the viability of various cells was determined using crystal violet stain assay. […] The dye in viable cells was measured by reading the optical density at 590 nm using a scanning multi-well spectrophotometer (ELISA reader; Dynatech Laboratories, Chantilly, VA).

Data set [11] relates to 3T3 cells. As to the kind of experiment: Cytotoxicity: cell proliferation assay (crystal violet stain) and morphology. In kind it is cell-based. How it is done: as §3, §6, §7
Data set [12] concerns EA.hy926 cells. As to the kind of experiment: Tube formation assay in Matrigel. In kind it is cell-based, Human. The settings on record: 20-100 µg/ml. How it is done:
as §4, §5

[13] abbreviates: molar equivalent given for 500 µg/ml, read-out: IC50.
The mark [14] stands for this setting: proliferation/viability, 48 h, crystal violet.

Where two headings read alike, the source gives them in different places.

Broadly, the IC50 is the midpoint of a concentration-inhibition curve. Turning to “tetrameric cyclic compound of 4,5-dihydroxynaphthalene-2,7, disulfonic acid linked by methylene bridges [ST104P]”, the “secretion of MMP-2 by endothelial cells” value in data set [1] is listed as “potently inhibited the secretion”. The “secretion of MMP-9 by endothelial cells” value in data set [2] was “potently inhibited the secretion”. This substance also registered an inhibition of angiogenesis in data set [3] (50 µg per CAM, 8-day old chick embryos) of 50%. The “mortality of chick embryos” value in data set [3] (200 µg per CAM, 9 out of 10 died versus 0 in PBS-treated group, used as index of angiogenesis inhibition) is reported as 90%. Further, in [3] (50 or 200 µg in saline, 48 h, 8-day old chicken embryos), the “vascular network on CAMs” value was “severely destroyed”. In [4] (100 µg, subcutaneous injection for four times), the “decrease of average tumor size versus saline-treated groups” value is on record as ~ 40%. The same substance came in with an average tumor size in data set [4] (100 µg, subcutaneous injection for four times, saline-treated 4876 ± 670 mm^3, P < 0.05) of 2620 ± 320 mm^3. Besides, the “weight loss or adverse effects” value in [4] (mouse, in vivo) was “no evident weight loss or adverse effects”. In data set [4] (versus vehicle-treated group, P < 0.01, Kaplan-Meier), the “survival of tumor-bearing mice” value is “survived significantly longer”. Besides, the morphologies of cells result in data set [5] (10-500 µg/ml, DMEM with 10% FCS, 24 h, phase contrast microscopy) was “altered the morphologies of endothelial cells”. Further, the IC50 is > 350 µM in data set [5] (setting [13]); > 500 µg/mL in data set [5] (setting [14]); > 350 µM in [10] (EA.hy926, molar equivalent given for 500 µg/ml, read-out: IC50); > 500 µg/mL in [10] (proliferation/viability, EA.hy926, 48 h, crystal violet); > 350 µM in data set [11] (setting [13]); > 500 µg/mL in data set [11] (setting [14]). In addition, in data set [6], the tolerability entry is listed as “well tolerated”. Besides, the “IC50 (migration toward chemoattractant bFGF)” value in [7] and in data set [9] was 100 µg/mL each time. Besides, the “tube formation (vessel-like structure in Matrigel)” value in data set [8] and in data set [12] was “effectively abolished the vessel-like structure” in each case.

Values taken from EP1825852A1, “ST104P as an anti-angiogenic agent” (Sagittarius Life Science Corp., priority 2006, dated 2007).
